Here are results for eleven compounds from ChEMBL document CHEMBL1201862, “PubChem BioAssay data set” (2004).

Molecules are shown by their SMILES.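 Values below derive from 48-hour exposures of cells grown in 96-well plates, with endpoints linearly interpolated between the two concentrations bracketing the appropriate inhibition level. Abbreviation: GI50, concentration required for 50% inhibition of growth.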 Active and inactive are the calls of the source. No stated cut-off is given here; in the data, active = GI50 up to about 1.1 µM and inactive = higher. Bounds are passed on as bounds.

Some test systems named below: Hs-578T; NCI-H226; UACC-257; LOX IMVI; SF-539; K562; MDA-MB-231; ACHN; A549; SK-MEL-2; SK-MEL-5; COLO 205; MDA-MB-435; SK-MEL-28; EKVX; HCT-15; SF-295; IGROV-1; OVCAR-4; MCF7.
Common to all, as to experiment: NCI anticancer screen, dose series, 48 h

Consider `ClC1=NN=C(c2c[nH]c3ccccc23)CC1NCc1ccccc1` (stereo not given), for which the GI50 in the experiment on Hs-578T, in the experiment on NCI-H226, in the experiment on UACC-257, in the experiment on LOX IMVI, in the experiment with SF-539 and with K562 was > 100 µM (inactive) throughout. The GI50 with MDA-MB-231, with ACHN, with A549, in the experiment with SK-MEL-2, in the experiment on SK-MEL-5 and with COLO 205 was > 100 µM (inactive) throughout. The GI50 is > 100 µM (inactive) in the experiment on MDA-MB-435; > 100 µM (inactive) with SK-MEL-28; > 100 µM (inactive) in the experiment on EKVX; greater than 100 µM in the experiment on HCT-15; > 100 µM (inactive) in the experiment with SF-295; 97.7 µM (inactive) in the experiment with IGROV-1.
For `C1CSCC2(COC2)CS1`, the GI50 with Hs-578T, with OVCAR-4, in the experiment with NCI-H226, in the experiment on UACC-257, in the experiment on MCF7 and in the experiment on LOX IMVI was > 100 µM (inactive) each time. In addition, the GI50 in the experiment with K562, in the experiment with ACHN, in the experiment with A549, with SK-MEL-5, in the experiment with COLO 205 and with MDA-MB-435 was > 100 µM (inactive) throughout. Moreover, the GI50 with SK-MEL-28 and in the experiment with SF-295 was > 100 µM (inactive) in each case.
Regarding `CCCCCCCCCCCCCCCCCCNc1ccn(C2OC(COP(=O)(O)OCC3OC(n4cc(C)c(=O)[nH]c4=O)CC3O)C(O)C2O)c(=O)n1` (stereo not given), the GI50 in the experiment on Hs-578T was 19.4 µM (inactive); in the experiment with OVCAR-4, 15.1 µM (inactive); in the experiment on NCI-H226, 23.7 µM (inactive); in the experiment on UACC-257, 18.1 µM (inactive); in the experiment with MCF7 it was 34.6 µM (inactive); with LOX IMVI, 17.7 µM (inactive). For the same compound, the GI50 with SF-539 is 17.3 µM (inactive); with K562 it was 19.8 µM (inactive); with MDA-MB-231, 14.6 µM (inactive); in the experiment on ACHN, 21.1 µM (inactive); with A549, 17.8 µM (inactive); in the experiment with SK-MEL-5 it was 14.9 µM (inactive). For the same compound, the GI50 in the experiment on COLO 205 was 14.9 µM (inactive); in the experiment with MDA-MB-435 it was 16.9 µM (inactive); in the experiment on SK-MEL-28, 17.5 µM (inactive); with EKVX it was 19.4 µM (inactive); in the experiment with HCT-15 it was 16.1 µM; with SF-295, 18.7 µM (inactive).
In the case of `CSc1ccc(-c2cc(-c3nc4ccccc4[nH]3)nc3[nH]c(-c4nc5ccccc5[nH]4)cc(=O)c23)cc1`, the GI50 in the experiment on Hs-578T is > 100 µM (inactive); in the experiment on OVCAR-4 it was 82.4 µM (inactive); in the experiment with NCI-H226 it was 84.5 µM (inactive); with UACC-257, > 100 µM (inactive); in the experiment with MCF7, 34 µM (inactive); with LOX IMVI it was 42.5 µM (inactive). For the same compound, the GI50 is > 100 µM (inactive) in the experiment on SF-539; 42 µM (inactive) in the experiment on K562; 29.4 µM (inactive) with ACHN; > 100 µM (inactive) in the experiment with A549; > 100 µM (inactive) in the experiment on SK-MEL-2; 37.8 µM (inactive) with COLO 205. In addition, the GI50 in the experiment with MDA-MB-435 was 41.1 µM (inactive); with EKVX, 27.1 µM (inactive); in the experiment with HCT-15 it was greater than 100 µM; in the experiment on SF-295, 86.1 µM (inactive); in the experiment with IGROV-1 it was > 100 µM (inactive).
Take `Cc1ccc(-n2c(=O)c3nn4c(=O)n(-c5ccc(C)cc5)c(=O)c4nn3c2=O)cc1`: the GI50 in the experiment on Hs-578T, with OVCAR-4, with NCI-H226, in the experiment with UACC-257, with MCF7 and with LOX IMVI was > 100 µM (inactive) in each case. Moreover, the GI50 with SF-539, in the experiment on K562, in the experiment with ACHN, in the experiment on A549, with SK-MEL-2 and with SK-MEL-5 was > 100 µM (inactive) each time. Besides, the GI50 is > 100 µM (inactive) in the experiment on COLO 205; > 100 µM (inactive) in the experiment on MDA-MB-435; > 100 µM (inactive) with SK-MEL-28; > 100 µM (inactive) in the experiment on EKVX; greater than 100 µM in the experiment with HCT-15; > 100 µM (inactive) in the experiment with SF-295. Moreover, in the experiment on IGROV-1, the GI50 is > 100 µM (inactive).
For `Oc1cc(-c2ccc(F)cc2)nc2ncccc12`, the GI50 with Hs-578T was 65.2 µM (inactive); with OVCAR-4, 78.9 µM (inactive); in the experiment on NCI-H226, 24.3 µM (inactive); with UACC-257, 30.5 µM (inactive); with MCF7 it was 38.5 µM (inactive); in the experiment with LOX IMVI, 45.5 µM (inactive). Moreover, the GI50 with SF-539 is 41 µM (inactive); in the experiment on K562 it was 22.2 µM (inactive); in the experiment on MDA-MB-231 it was > 100 µM (inactive); in the experiment on ACHN, 73.8 µM (inactive); in the experiment with A549, 52.8 µM (inactive); in the experiment with SK-MEL-2 it was 33.5 µM (inactive). Also, the GI50 was 20.2 µM (inactive) in the experiment with COLO 205; > 100 µM (inactive) with SK-MEL-28; 39.4 µM (inactive) in the experiment with EKVX; 34.2 µM in the experiment with HCT-15; 67.5 µM (inactive) with IGROV-1.
Take `CN(C)CCN1C(=O)c2ccccc2C1(O)c1ccc(Cl)cc1` (stereo not given): the GI50 in the experiment on Hs-578T was 74 µM (inactive); in the experiment on OVCAR-4 it was > 100 µM (inactive); in the experiment on NCI-H226 it was 66.7 µM (inactive); in the experiment on UACC-257, 24.8 µM (inactive); in the experiment on MCF7, > 100 µM (inactive); with K562, > 100 µM (inactive). Also, the GI50 in the experiment with MDA-MB-231 was 44.6 µM (inactive); with ACHN, > 100 µM (inactive); in the experiment on A549, > 100 µM (inactive); in the experiment with SK-MEL-5 it was 24 µM (inactive); in the experiment on COLO 205, > 100 µM (inactive); in the experiment on MDA-MB-435 it was > 100 µM (inactive). Moreover, the GI50 with SK-MEL-28 was 37.8 µM (inactive); in the experiment with EKVX, > 100 µM (inactive); in the experiment on HCT-15, greater than 100 µM; in the experiment on SF-295 it was > 100 µM (inactive); in the experiment on IGROV-1, 39.3 µM (inactive).
In the case of `CC(C)(CC1(C)NC(=O)NC1=O)OCc1ccccc1` (stereo not given), the GI50 in the experiment on Hs-578T, in the experiment with OVCAR-4, in the experiment on UACC-257, in the experiment with MCF7, with LOX IMVI and in the experiment with K562 was > 100 µM (inactive) in each case. Further, the GI50 with MDA-MB-231, in the experiment on ACHN, in the experiment with A549, in the experiment on SK-MEL-2, with SK-MEL-5 and in the experiment with MDA-MB-435 was > 100 µM (inactive) throughout. The GI50 in the experiment on SK-MEL-28 was > 100 µM (inactive); in the experiment with EKVX, > 100 µM (inactive); with HCT-15, greater than 100 µM; in the experiment with SF-295, > 100 µM (inactive); in the experiment with IGROV-1, > 100 µM (inactive).
Turning to `CCN(CC)c1ccc(C2SCC(=O)N2c2ccc(NC(=O)c3ccc(N4C(=O)CSC4c4ccc(N(CC)CC)cc4)cc3)cc2)cc1` (stereo not given), the GI50 was > 100 µM (inactive) in the experiment with Hs-578T; 70.8 µM (inactive) in the experiment with OVCAR-4; > 100 µM (inactive) in the experiment with UACC-257; 79.4 µM (inactive) with MCF7; 67 µM (inactive) with LOX IMVI; > 100 µM (inactive) in the experiment on SF-539. In addition, the GI50 was 47.6 µM (inactive) in the experiment on K562; > 100 µM (inactive) in the experiment on MDA-MB-231; > 100 µM (inactive) in the experiment with ACHN; > 100 µM (inactive) in the experiment with A549; > 100 µM (inactive) with SK-MEL-2; > 100 µM (inactive) in the experiment on SK-MEL-5. Besides, the GI50 was > 100 µM (inactive) in the experiment on COLO 205; > 100 µM (inactive) with MDA-MB-435; > 100 µM (inactive) with SK-MEL-28; > 100 µM (inactive) with EKVX; greater than 100 µM with HCT-15; 30.1 µM (inactive) in the experiment with SF-295. Further, the GI50 in the experiment with IGROV-1 was > 100 µM (inactive).
As to `Oc1cccc(-c2ccc3c4c2O[C@H]2c5[nH]c6ccccc6c5C[C@@]5(O)[C@@H](C3)N(CC3CC3)CC[C@]425)c1`, the GI50 in the experiment on Hs-578T is 1.74 µM (inactive); with OVCAR-4, 1.61 µM (inactive); in the experiment with NCI-H226 it was 3.75 µM (inactive); with LOX IMVI it was 1.8 µM (inactive); with SF-539, 1.68 µM (inactive); with MDA-MB-231, 2.17 µM (inactive). The GI50 was 2.23 µM (inactive) in the experiment on ACHN; 1.78 µM (inactive) with A549; 2.46 µM (inactive) with SK-MEL-2; 3.48 µM (inactive) with SK-MEL-5; 2.44 µM (inactive) with COLO 205; 1.72 µM (inactive) in the experiment with MDA-MB-435. Also, the GI50 in the experiment with EKVX is 13.5 µM (inactive); in the experiment with HCT-15, 1.67 µM; in the experiment with SF-295, 1.82 µM (inactive); with IGROV-1 it was 1.74 µM (inactive).
For the compound `CCOC(=O)NNC(=O)NCCCCNC(=O)NNC(=O)OCC`, the GI50 in the experiment with Hs-578T, in the experiment on NCI-H226, in the experiment with UACC-257, in the experiment on LOX IMVI, in the experiment on SF-539 and in the experiment on K562 was > 100 µM (inactive) throughout. The GI50 in the experiment with MDA-MB-231, with ACHN, in the experiment on A549, in the experiment on SK-MEL-2, with SK-MEL-5 and in the experiment with COLO 205 was > 100 µM (inactive) in each case. Moreover, the GI50 was > 100 µM (inactive) with MDA-MB-435; > 100 µM (inactive) with SK-MEL-28; > 100 µM (inactive) in the experiment on EKVX; greater than 100 µM with HCT-15; > 100 µM (inactive) in the experiment with SF-295; > 100 µM (inactive) in the experiment on IGROV-1.
